The target of assay [1] is T1, His-TEV-AtPP01 ΔcTP V030 (SEQ ID NO: 374) (Arabidopsis thaliana, UniProt P55826, S305L/Y426V).
T1 construct: with cTPs removed; made in house; host or cells: E. coli BL21 (DE3), His GraviTrap, partially purified
T1 sequence (P55826 with tags, fused parts or gaps S305L/Y426V): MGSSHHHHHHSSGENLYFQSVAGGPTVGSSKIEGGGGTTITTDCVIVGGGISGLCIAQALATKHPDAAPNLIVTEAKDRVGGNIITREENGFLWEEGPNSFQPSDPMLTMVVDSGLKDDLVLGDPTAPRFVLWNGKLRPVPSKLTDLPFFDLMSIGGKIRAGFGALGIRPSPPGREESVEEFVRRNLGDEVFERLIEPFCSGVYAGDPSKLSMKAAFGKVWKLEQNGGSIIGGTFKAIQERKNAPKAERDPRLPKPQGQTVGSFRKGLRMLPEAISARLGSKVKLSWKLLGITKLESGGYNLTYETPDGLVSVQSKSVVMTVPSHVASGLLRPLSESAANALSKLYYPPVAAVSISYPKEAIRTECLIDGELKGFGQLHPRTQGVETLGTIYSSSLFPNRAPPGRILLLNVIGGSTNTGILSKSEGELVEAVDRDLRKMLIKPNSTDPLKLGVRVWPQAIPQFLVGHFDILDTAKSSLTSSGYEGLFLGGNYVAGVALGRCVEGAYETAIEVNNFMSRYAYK
Nature of the assay: activity rate of PPO variant in in vitro assay. It is filed as biochemical. As to conditions: role: substrate; 1 uM protoporphyrinogen IX; no inhibitor. From the text: (§1) A pET24 plasmid containing a DNA sequence encoding variants of AtPPO1 derived from Arabidopsis thaliana with cTPs removed and both a 6×His tag and TEV protease cleavage tag added at the N-terminus, codon-optimised for expression in E. coli, and under control of a T7 promoter, was synthesised by Twist Bioscience. The following variants were synthesised: WT AtPPO1 (SEQ ID NO: 370), AtPPO1 L479M (SEQ ID NO: 371), AtPPO1 L479N (SEQ ID NO: 372), AtPPO1 S305L Y426V (SEQ ID NO: 374) and AtPPO1 S305L Y426V L479M (SEQ ID NO: 373). This plasmid was expressed in E. coli BL21 (DE3) with 50 μg/mL kanamycin selection. 10 mL of overnight cultures grown at 37° C. were used to inoculate 1 L AIM (AIM-Terrific Broth Base including Trace elements, Formedium) in 2 L shake flasks. Cultures were grown at 37° C., 200 rpm for 3 hours and then overnight at 26° C. Cells were harvested centrifugation. 5-15 g of cell pellet was lysed in and resuspended in ratio of 1:1.5 in lysis buffer (20 mM Tris pH8, 500 mM sodium chloride, 10% glycerol, 1× complete Protease EDTA-free Inhibitor Tablet (Roche), 10 mM imidazole). The resuspension was sonicated at 75% using 10 cycles of 30 seconds, 40 seconds off. After sonication Triton X-100 was added to the lysates at a final concentration of 0.5%. The lysates were centrifuged at 20,000 rpm for 25 min at 4° C. Cleared lysates were loaded on His GraviTrap (Cytiva) columns, washed with 20 mL of lysis buffer and eluted in elution buffer (20 mM Tris pH8, 500 mM sodium chloride, 10% glycerol, 200 mM imidazole, 0.03% (v/v) Triton X-100). The eluate was desalted on a PD10 column and 2.5-3.2 mL was collected. Protein concentration was measured and calculated using the absorbance at 280 nm. Extracts were diluted 1 in 4 and 10 uL was analysed by SDS PAGE.
(§2) Partially purified Protoporphyrinogen Oxidase enzymes were assayed for activity using fluorescence adapted from the method of Shepherd & Dailey (Anal Biochem. 2005 344(1) 115-121). The assay was performed in black 384 well plates with a clear bottom and the total volume of the reaction mixture was 91 ul. The final assay mixture contained 100 mM K2HPO4 pH7.2, 1 mM Na2EDTA, 5 mM DTT, 20% glycerol (v/v), 0.05% Tween 20 (v/v), 1.1% DMSO (v/v), 1 uM protoporphyrinogen IX and 1.5 nM enzyme. Compounds were dissolved in DMSO at 1 mM and a 4-fold serial dilution carried out to give 8 rates. 1 ul was added to the assay mixture. This gave final compound concentrations of 11, 2.7, 0.69, 0.17, 0.04, 0.01, 0.002, 0.0007 uM. Enzyme and inhibitor were preincubated for 5 minutes prior to starting the reaction with the addition of the substrate. […] IC50s were calculated using GraphPad Prism 7.05 nonlinear regression (Table 6). Each compound was tested in duplicate.

The target in assay [2] is T2, His-TEV-AtPP01 ΔcTP L479N (SEQ ID NO: 372) (Arabidopsis thaliana, UniProt P55826, L479N).
T2 construct: with cTPs removed; made in house; host or cells: E. coli BL21 (DE3), His GraviTrap, partially purified
T2 sequence (P55826 with tags, fused parts or gaps L479N): T1 sequence (P55826 with tags, fused parts or gaps S305L/Y426V) with L290S, V411Y, L464N
Nature of the assay: activity rate of PPO variant in in vitro assay. It is filed as biochemical. As to conditions: role: substrate; 1 uM protoporphyrinogen IX; no inhibitor.
Excerpt: as §1, §2

The text below walks through data of US20260297542A1, “HERBICIDE RESISTANT PLANTS” (SYNGENTA CROP PROTECTION AG, priority 2023, published 2026).

Where a chain is given by its changes, count along the chain named.

As to `C=Cc1c2[nH]c(c1C)Cc1[nH]c(c(CCC(=O)O)c1C)Cc1[nH]c(c(C)c1CCC(=O)O)Cc1[nH]c(c(C)c1C=C)C2` [protoporphyrinogen IX], the figures for the Rate in assay [1] and in assay [2] were 5.3 rfu second^−1 pmole^−1 and 13.2 rfu second^−1 pmole^−1, respectively.
